Experiments:
[1] = target: B-Raf (V600E) (SEQ. ID NO: 4) kinase (Homo sapiens (Human), UniProt P15056, V600E); assay: Biochemical Assay for B-Raf (V600E) (1); settings: Table J, BRAF V600E, assay version (1); read-out: BRAF VE (1) IC50
Description: Biochemical Assay for B-Raf (V600E) (1)
Activity of B-Raf (V600E) (SEQ. ID NO: 4) kinase was determined spectroscopically using a coupled pyruvate kinase/lactate dehydrogenase assay that continuously monitors the ATP hydrolysis-dependent oxidation of NADH (e.g., Schindler et al., Science, 2000, 289, 1938-1942). Assays were conducted in 384-well plates (100 μL final volume) using 0.03 nM B-Raf (SignalChem), 1.5 units pyruvate kinase, 2.1 units lactate dehydrogenase, 1 mM phosphoenol pyruvate, 0.28 mM NADH, 30.1 nM MEK (SignalChem), and 1 mM ATP in assay buffer (100 mM Tris, Ph 7.5, 15 mM MgCl2, 0.5 mM DTT, 0.1% octyl-glucoside, 0.002% (w/v) BSA, and 0.002% Triton X-100). Inhibition of B-Raf (V600E) was measured by adding serial diluted test compound (final assay concentration of 1% DMSO). A decrease in absorption at 340 nm was monitored continuously for 6 h at 30° C. on a multi-mode microplate reader (BioTek). The reaction rate was calculated using the 3 to 4 h time frame. The reaction rate at each concentration of compound was converted to percent inhibition using controls (i.e., reaction with no test compound and reaction with a known inhibitor) and IC50 values were calculated by fitting a four-parameter sigmoidal curve to the data using Prism (GraphPad software).

[2] = target: B-Raf kinase (SEQ. ID NO: 2) (Homo sapiens (Human), UniProt P15056); assay: Biochemical Assay for B-Raf (1); settings: Table J, assay version (1); read-out: BRAF (1) IC50
Description: Biochemical Assay for B-Raf (1)
(§1) Activity of B-Raf kinase (SEQ. ID NO: 2) was determined spectroscopically using a coupled pyruvate kinase/lactate dehydrogenase assay that continuously monitors the ATP hydrolysis-dependent oxidation of NADH (e.g., Schindler et al., Science, 2000, 289, 1938-1942). Assays were conducted in 384-well plates (100 μL final volume) using 0.13 nM B-Raf (Sigma), 1.5 units pyruvate kinase, 2.1 units lactate dehydrogenase, 1 mM phosphoenol pyruvate, 0.28 mM NADH, 30.1 nM MEK (SignalChem), and 1 mM ATP in assay buffer (100 mM Tris, Ph 7.5, 15 mM MgCl2, 0.5 mM DTT, 0.1% octyl-glucoside, 0.002% (w/v) BSA, and 0.002% Triton X-100). Inhibition of B-Raf was measured by adding serial diluted test compound (final assay concentration of 1% DMSO). A decrease in absorption at 340 nm was monitored continuously for 6 h at 30° C. on a multi-mode microplate reader (BioTek). The reaction rate was calculated using the 4 to 5 h time frame. The reaction rate at each concentration of compound was converted to percent inhibition using controls (i.e., reaction with no test compound and reaction with a known inhibitor) and IC50 values were calculated by fitting a four-parameter sigmoidal curve to the data using Prism (GraphPad software).

[3] = target: A-Raf kinase (SEQ. ID No: 1) (Homo sapiens (Human), UniProt P10398, Y301D/Y302D); assay: Biochemical Assay for A-Raf (1); settings: Table J, assay version (1); read-out: ARAF (1) IC50
Description: Biochemical Assay for A-Raf (1)
as §1, with “A-Raf” for “B-Raf”, “No: 1)” for “NO: 2)”, “5.55” for “0.13”, “pH” for “Ph”

A375 cells = assay: A375 Cell Proliferation Assay (1); assay type: cell-based; settings: Homo sapiens, A-375
Description: A375 Cell Proliferation Assay (1)
A375 cells (catalog (#CRL-1619) are obtained from the American Type Culture Collect (ATTC, Manassas, VA). Briefly, cells were grown in DMEM High Glucose supplemented with 10% characterized fetal bovine serum (Invitrogen, Carlsbad, CA) and 1% Penicillin/Streptomycin/L-Glutamine at 37° C., 5% CO2, and 95% humidity. Cells are expanded until reaching 70-95% confluency at which point they are sub-cultured or harvested for assay use. A serial dilution of test compound is dispensed into a 96-well black clear bottom plate in triplicate. Two thousand five hundred cells are added per well in 200 μL complete growth medium in the 96-well plate. Plates are incubated for 67-72 h at 37° C., 5% CO2, and 95% humidity. At the end of the incubation, 40 μL of a 440 μM solution of resazurin (Sigma, St. Louis, MO) in PBS is added to each well of the plate and plates are incubated for an additional 5-6 h at 37° C., 5% CO2, and 95% humidity. Plates are read on a Synergy2 or equivalent reader (Biotek, Winooski VT) using an excitation of 540 nm and an emission of 600 nm. Data is analyzed using Prism software (GraphPad, San Diego, CA) to calculate IC50 values.

[4] = target: C-Raf kinase (SEQ. ID NO: 3) (Homo sapiens (Human), UniProt P04049, Y340D/Y341D); assay: Biochemical Assay for C-Raf (1); settings: Table J, assay version (1); read-out: CRAF (1) IC50
Description: Biochemical Assay for C-Raf (1)
as §1, with “of C-Raf” for “of B-Raf”, “NO: 3)” for “NO: 2)”, “using 0.43” for “using 0.13”, “nM C-Raf” for “nM B-Raf”

Sequence of B-Raf (V600E) (SEQ. ID NO: 4) kinase (P15056 416-766 V600E): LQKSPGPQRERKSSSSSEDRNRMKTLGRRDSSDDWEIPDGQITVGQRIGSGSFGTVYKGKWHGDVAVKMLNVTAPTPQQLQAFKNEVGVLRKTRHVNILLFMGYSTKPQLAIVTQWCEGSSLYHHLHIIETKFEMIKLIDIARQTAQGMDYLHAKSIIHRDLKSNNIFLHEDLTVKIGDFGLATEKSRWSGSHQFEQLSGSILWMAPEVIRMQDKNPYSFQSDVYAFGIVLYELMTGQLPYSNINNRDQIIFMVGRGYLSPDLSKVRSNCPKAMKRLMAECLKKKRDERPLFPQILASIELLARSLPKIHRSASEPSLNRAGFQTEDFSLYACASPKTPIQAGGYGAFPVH
Sequence of B-Raf kinase (SEQ. ID NO: 2) (P15056 416-766): as the sequence (P15056 416-766 V600E) above, with E185V counted along it
Sequence of A-Raf kinase (SEQ. ID No: 1) (P10398 other isoform, or with tags, fused parts or gaps Y301D (already in the parent)/Y302D (already in the parent)): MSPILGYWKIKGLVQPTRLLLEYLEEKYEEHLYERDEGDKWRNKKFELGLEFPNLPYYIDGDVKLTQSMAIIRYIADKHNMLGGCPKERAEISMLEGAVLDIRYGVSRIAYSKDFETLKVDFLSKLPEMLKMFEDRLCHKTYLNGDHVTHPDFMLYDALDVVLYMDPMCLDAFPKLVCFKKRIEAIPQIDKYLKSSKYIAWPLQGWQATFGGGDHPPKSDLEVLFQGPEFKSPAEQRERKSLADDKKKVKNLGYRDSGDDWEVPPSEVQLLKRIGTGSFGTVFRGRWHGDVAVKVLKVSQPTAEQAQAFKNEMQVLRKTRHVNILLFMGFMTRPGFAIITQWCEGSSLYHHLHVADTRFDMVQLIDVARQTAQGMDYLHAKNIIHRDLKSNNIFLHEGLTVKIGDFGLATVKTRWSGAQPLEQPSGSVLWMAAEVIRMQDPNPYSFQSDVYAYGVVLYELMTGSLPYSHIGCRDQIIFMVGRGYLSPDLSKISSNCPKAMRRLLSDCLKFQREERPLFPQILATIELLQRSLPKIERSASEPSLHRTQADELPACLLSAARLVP
Sequence of C-Raf kinase (SEQ. ID NO: 3) (P04049 307-648 Y340D/Y341D): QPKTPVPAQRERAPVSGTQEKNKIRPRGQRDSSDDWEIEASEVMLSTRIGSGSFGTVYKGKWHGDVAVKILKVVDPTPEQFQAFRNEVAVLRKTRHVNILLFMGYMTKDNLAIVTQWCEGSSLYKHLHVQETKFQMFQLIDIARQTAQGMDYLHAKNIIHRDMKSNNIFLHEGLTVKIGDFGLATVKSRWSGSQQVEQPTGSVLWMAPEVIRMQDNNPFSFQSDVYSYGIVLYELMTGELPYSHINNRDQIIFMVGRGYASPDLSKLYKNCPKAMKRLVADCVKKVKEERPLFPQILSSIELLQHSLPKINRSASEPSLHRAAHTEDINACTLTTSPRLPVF

SMILES | IC50 [1] [nM] | IC50 [2] [nM] | IC50 [3] [nM] | IC50 (A375 cells) [nM] | IC50 [4] [nM]
Cc1ccc(NC(=O)c2ccnc(C(F)(F)F)c2)cc1-c1ccnc(-c2ccncc2)c1 [Example 44] | ≤ 100 | ≤ 100 | 1000 to 10000 | 1000 to 10000 | ≤ 100
Cc1ccc(NC(=O)c2ccnc(C(F)(F)F)c2)cc1-c1ccnc(-c2cncnc2)c1 [Example 45] | ≤ 100 | ≤ 100 | 1000 to 10000 | 1000 to 10000 | ≤ 100
CNC(=O)c1cc(-c2cc(-c3cc(NC(=O)c4ccnc(C(F)(F)F)c4)ccc3F)cc(C)n2)ccn1 [Example 66] | ≤ 100 | 1000 to 10000 | 1000 to 10000 | 1000 to 10000 | ≤ 100
CNC(=O)c1cc(-c2cccc(-c3cc(NC(=O)c4cccc(C)c4)cnc3C)c2)ccn1 [Example 91] | ≤ 100 | ≤ 100 | 1000 to 10000 | 1000 to 10000 | ≤ 100
Cc1ccc(NC(=O)c2ccnc(C(F)(F)F)c2)cc1-c1ccnc(-c2ccnc(NC(=O)CC#N)c2)n1 [Example 144] | ≤ 100 | ≤ 100 | 100 to 500 | 500 to 1000 | ≤ 100
Cc1ccc(NC(=O)c2cccc(C(C)(C)C#N)c2)cc1-c1cncc(-c2ccnc(C(=O)NC3CC3)c2)n1 [Example 149] | ≤ 100 | 100 to 500 | 1000 to 10000 | 1000 to 10000 | 100 to 500
Cc1ncc(NC(=O)c2ccnc(C3(C#N)CC3)c2)cc1-c1nccc(-c2ccnc(NC(=O)C3CC3)c2)n1 [Example 293] | ≤ 100 | ≤ 100 | 1000 to 10000 | 100 to 500 | ≤ 100
CNC(=O)c1cc(-c2cnnc(-c3cc(NC(=O)c4cnn(C5CC5)c4)cnc3C)c2)ccn1 [Example 324] | 1000 to 10000 | 1000 to 10000 | 1000 to 10000 | 1000 to 10000 | 1000 to 10000

Results, then the compound that gave them:

IC50 [1] [nM] | IC50 [2] [nM] | IC50 [3] [nM] | IC50 (A375 cells) [nM] | IC50 [4] [nM] | SMILES
≤ 100 | ≤ 100 | 1000 to 10000 | 500 to 1000 | ≤ 100 | Cc1ncc(NC(=O)c2ccnc(C(F)(F)F)c2)cc1-c1cccc(-c2ccnc(NC(=O)CN(C)C)c2)c1 [Example 95]
≤ 100 | 100 to 500 | 1000 to 10000 | 100 to 500 | 100 to 500 | CC(=O)Nc1cc(-c2cc(-c3cc(NC(=O)c4ccnc(C(C)(C)C#N)c4)c(F)cc3C)cn(C)c2=O)ccn1 [Example 116]
≤ 100 | 100 to 500 | 1000 to 10000 | 1000 to 10000 | 100 to 500 | CC(=O)Nc1cc(-c2cc(-c3cc(NC(=O)c4ccnc(C(F)(F)F)c4)c(F)cc3C)cc(=O)n2C)ccn1 [Example 155]
≤ 100 | ≤ 100 | 1000 to 10000 | 100 to 500 | ≤ 100 | CC(=O)Nc1cc(-c2nccc(-c3cc(NC(=O)c4ccnc(C(C)(C)C#N)c4)cnc3C)n2)ccn1 [Example 195]
≤ 100 | ≤ 100 | 500 to 1000 | ≤ 100 | ≤ 100 | COC(C)(C)c1cc(C(=O)Nc2ccc(C)c(-c3nccc(-c4ccnc(NC(=O)C5CC5)c4)n3)c2)ccn1 [Example 239]
≤ 100 | 100 to 500 | 1000 to 10000 | 100 to 500 | ≤ 100 | Cc1ccc(NC(=O)c2ccnc(C(C)(C)C#N)c2)cc1-c1ccnc(-c2ccnc(NC(=O)C3(C)CC3)c2)n1 [Example 248]
≤ 100 | ≤ 100 | 500 to 1000 | 1000 to 10000 | ≤ 100 | Cc1cc(F)c(NC(=O)c2ccnc(C(F)F)c2)cc1-c1cncc(-c2ccnc(NC(=O)C3CC3)c2)n1 [Example 275]
≤ 100 | 100 to 500 | 1000 to 10000 | 1000 to 10000 | 100 to 500 | Cc1ncc(NC(=O)c2ccnc(C(C)(C)C#N)c2)cc1-c1cccc(-c2ccnc(N)n2)c1 [Example 289]

Source: US12319655B2, “RAF kinase inhibitors and methods of use thereof” (Deciphera Pharmaceuticals, LLC, priority 2021, dated 2025)
